Consider twelve molecules from patent publication US6809101B2, “Compounds having anti-hepatitis C virus effect” (priority 2000, dated 2004).

Where two headings read alike, the source gives them in different places.

For data set [1], the target named is HCV RNA-dependent RNA polymerase (UniProt P27958). Kind of data set: Inhibitory activity against HCV RNA-dependent RNA polymerase (Experiment Example 1). In kind it is biochemical, hepatitis C virus (HCV). To be noted: Experimental example 1, poly(A) template, oligo(U)12 primer, 3H-UTP substrate, enzyme reaction 25° C. for 30 min. From the text:
Inhibitory Activity Against HCV RNA-Dependent RNA Polymerase
(1) Preparation of Hepatitis C Virus (HCV) RNA-Dependent RNA Polymerase
It was collected several cDNA clones of HCV RNA-dependent RNA polymerase from plasma of people infected with HCV, RNA-dependent RNA polymerase was expressed by using insect cell or E. coli from these clones. RNA-dependent RNA polymerase in cell extract was purified by anion-exchange chromatography, heparin-affinity chromatography, poly U-affinity chromatography, cation-exchange chromatography, gel filtration chromatography, and the like. The preparation was done at about 4° C. under low temperature condition, as solution dissolving enzyme was used Tris buffer (pH 7.5) containing ethylenediamine tetraacetic acid (1 mM), dithiothreitol (10 mM), and glycerol (20%). The purified enzyme was kept at 4° C. or −20° C. until it was used for assay.
(2) Method of HCV RNA-Dependent RNA Polymerase Assay
(1) In polypropylene vessel was added buffer I*^1)(10.5 μL) containing Tris-HCl (100 mM, pH 7.5), magnesium chloride (25 mM), dithiothreitol (5 mM), potassium chloride (125 mM), ethylenediamine tetraacetic acid (5 mM), and then were added poly(A)*^2) aqueous solution (100 μg/mL, 10.5 μL), oligo(U)12*^3) aqueous solution (10 μg/mL, 10.5 μL), and water (8 μL), and the mixture was mixed slowly.
*1) All of water used as experimental material in enzyme reaction were carried out inactivation treatment of Rnase with diethylpyrocarbonate. The inactivation treatment with diethylpyrocarbonate was carried out as follows, 1) diethylpyrocarbonate (0.1 g) was dissolved in de-ionized water (100 mL), 2) the solution was stood at 37° C. for 24 h, 3) kept in autoclave at 120° C. for 30 min.
*2) Poly(A) is single strand polynucleotide composed with only adenylic acid. It was used as template.
*3) Oligo(U)12 is single strand oligonucleotide composed with only 12 element of uridylic acid. It was used as primer.
(2) Next, to the mixture was added a solution (10.5 μL) of RNA-dependent RNA polymerase, and preincubation was carried out at 25° C. for 60 min.
(3) A solution (50 μL) preincubated described in (2) was added into 96-wells microtiter plate divided test compound (5.26 μL per well) dissolved with dimethylsulfoxide or water.
*4) UTP is uridine triphosphate. It was used as substrate.
(5) When the enzyme reaction was passed for 30 min, to the mixture was added a aqueous solution (50 mM, 50 μL) of ethylenediamine tetraacetic acid disodium and the enzyme reaction was stopped.
(6) Next, after all volume of sample of (5) was transferred on filter introduced diethylaminoethyl group (henceforth shortening as DEAE-filter mat) by using cell harvester, was carried the washing twice with sodium phosphate buffer (0.25 M, pH 7.0) for 10 sec and the washing once with deionized water for 10 sec.
(7) After the washing, DEAE-filter mat was dried at 95° C. for 15 min and sealed together with liquid scintillator (10 mL) into sample bag.
(8) Radioactivity was measured by using scintillation counter.
(9) The percentage of inhibition was calculated by replacing the measured value of radioactivity (unit; ccpm) into the following expression.
The percentage of inhibition=100−(the measured value in presence of test compound−the measured value in absence of enzyme)÷(the measured value in absence of test compound−the measured value in absence of enzyme)×100.
(10) The concentration of test compound inhibiting 50% (IC50) was obtained from the percentage of inhibition calculated in (9) and the used concentration of test compound inhibiting.
In case of the percentage of inhibition is A % when α μg/mL of the compound is used and the percentage of inhibition is B % when β μg/ml of the compound is used, IC50 was obtained from the following expression. Provided that it is theorized as A≧50>B. […]

For data set [2], the target named is T1, RNA-dependent RNA polymerase (RdRp) of bovine virus diarrhea virus (BVDV) (Bovine viral diarrhea virus, UniProt P19711).
T1 construct: RNA-dependent RNA polymerase (RdRp) of bovine virus diarrhea virus (BVDV)
T1 sequence (P19711 3270-3988): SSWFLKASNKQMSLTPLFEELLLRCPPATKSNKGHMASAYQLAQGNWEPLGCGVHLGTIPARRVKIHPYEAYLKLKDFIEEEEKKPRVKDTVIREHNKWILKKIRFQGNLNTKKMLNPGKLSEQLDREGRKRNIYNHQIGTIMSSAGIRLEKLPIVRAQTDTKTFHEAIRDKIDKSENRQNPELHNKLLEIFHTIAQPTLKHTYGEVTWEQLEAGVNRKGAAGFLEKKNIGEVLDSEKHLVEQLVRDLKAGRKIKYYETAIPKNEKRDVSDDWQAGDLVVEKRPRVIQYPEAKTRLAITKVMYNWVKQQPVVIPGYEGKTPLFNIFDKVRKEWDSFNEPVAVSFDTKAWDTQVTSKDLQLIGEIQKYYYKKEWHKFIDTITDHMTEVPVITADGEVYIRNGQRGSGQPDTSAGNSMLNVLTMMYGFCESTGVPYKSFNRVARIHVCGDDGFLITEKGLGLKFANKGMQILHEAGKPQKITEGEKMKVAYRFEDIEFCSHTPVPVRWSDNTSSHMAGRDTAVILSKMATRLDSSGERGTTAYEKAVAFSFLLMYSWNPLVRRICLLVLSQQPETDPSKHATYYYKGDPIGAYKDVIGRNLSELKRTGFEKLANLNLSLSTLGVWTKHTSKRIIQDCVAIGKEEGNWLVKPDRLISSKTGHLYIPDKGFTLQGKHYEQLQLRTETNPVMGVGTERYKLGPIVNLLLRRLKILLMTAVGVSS
In words: Inhibitory activity against BVDV RNA-dependent RNA polymerase (Experiment Example 2). It is filed as biochemical. The settings on record: Experimental example 2; same way as experiment example 1. From the text: Inhibitory Activity Against BVDV RNA-Dependent RNA Polymerase
Inhibitory activity against RNA-dependent RNA polymerase (RdRp) of bovine virus diarrhea virus (BVDV) was experimented too in the same way in experiment example 1.

The mark [3] stands for this setting: read-out: IC50 for HCV RdRp (converted).

`Cc1cnc(/C(O)=C2\SC(=S)NC2=O)o1` [Compound I-1, 5-[1-Hydroxy-1-(5-methyloxazol-2-yl)]methylene-2-thioxothiazolidin-4-one]: the melting point was 243 to 245 °C (dec.). Further, in data set [1] (read-out: IC50 for HCV RdRp), the IC50 was 1.03 µM. Moreover, in data set [2], the IC50 is 10.3 µM.
Regarding `O=C1NC(=S)S/C1=C(/O)c1ccco1` [Compound I-2, 5-[1-(Furan-2-yl)-1-hydroxy]methylene-2-thioxothiazolidin-4-one], the melting point was 230 to 235 °C (dec.). Besides, the IC50 in data set [1] (setting [3]) was 3.96 µM. The IC50 in data set [2] is 79.2 µM.
On the same counts, the results for `Cc1ccc(C(O)=C2SC(=S)NC2=O)o1` [Compound I-22, 5-[1-Hydroxy-1-(5-methylfuran-2-yl)]methylene-2-thioxothiazolidin-4-one] are 195 to 198 °C (dec.), 20.3 µM and 153 µM.
In the same order, the values of `Cc1cnoc1C(O)=C1SC(=S)NC1=O` [Compound I-27, 5-[1-Hydroxy-1-(4-methylisoxazol-5-yl)]methylene-2-thioxothiazolidin-4-one] are 230 to 234 °C (dec.), 6.6 µM and 74.3 µM.
In the case of `O=C1NC(=S)SC1=C(O)c1ccon1` [Compound I-29, 5-[1-(Isoxazol-3-yl)1-hydroxy]methylene-2-thioxothiazolidin-4-one], the melting point was 210 to 215 °C (dec.). Moreover, the IC50 in data set [1] (setting [3]) was 7.89 µM. Half-maximal inhibition in data set [2] (IC50) required 118 µM.
In the same order, the values of `O=C1NC(=S)SC1=C(O)c1ccno1` [Compound I-30, 5-[1-(Isoxazol-5-yl)1-hydroxy]methylene-2-thioxothiazolidin-4-one] are 195 to 202 °C (dec.), 29.8 µM and 140 µM.
On the same counts, the results for `O=C1NC(=S)SC1=C(O)c1nn[nH]n1` [Compound I-32, 5-[1-Hydroxy-1-(2H-tetrazol-5-yl)]methylene-2-thioxothiazolidin-4-one] are 188 to 193 °C (dec.), 14 µM and 161 µM.
On the same counts, the results for `O=C1NC(=S)SC1=C(O)c1nc[nH]n1` [Compound I-34, 5-[1-Hydroxy-1-(1H-1,2,4-triazol-3-yl)]methylene-2-thioxothiazolidin-4-one] are 285 to 290 °C (dec.), 4.03 µM and 61.3 µM.
On to `O=C1NC(=S)SC1=C(O)c1ncccn1` [Compound I-35, 5-[1-Hydroxy-1-(pyrimidin-2-yl)]methylene-2-thioxothiazolidin-4-one], for which the melting point was > 250 °C (dec.). Also, the IC50 in data set [1] (setting [3]) is 5.85 µM. In data set [2], this molecule showed an IC50 of 142 µM.
In the same order, the values of `O=C1NC(=S)SC1=C(O)c1cnccn1` [Compound I-36, 5-[1-Hydroxy-1-(pyrazin-2-yl)]methylene-2-thioxothiazolidin-4-one] are > 250 °C (dec.), 31.8 µM and 159 µM.
On to `O=C1NC(=S)SC1=C(O)c1ccccn1` [Compound I-37, 5-[1-Hydroxy-1-(pyridin-2-yl)]methylene-2-thioxothiazolidin-4-one], for which the melting point was > 250 °C (dec.). The IC50 in data set [1] (setting [3]) was 12.6 µM. In data set [2], the midpoint of inhibition, the IC50, lay at 151 µM.
In the same order, the values of `Cc1nnc(C(O)=C2SC(=S)NC2=O)o1` [Compound I-40, 5-[1-Hydroxy-1-(5-methyl-1,3,4-oxadiazol-2-yl)]methylene-2-thioxothiazolidin-4-one] are 230 to 237 °C (dec.), 8.22 µM and 21.8 µM.

Usually IC50 stands for the concentration needed to halve the response being measured. What is called melting point is the temperature, or range, at which the solid turns liquid.
